Some test systems named below: 786-0 renal; ACHN renal; DMS 114 small cell lung; HOP-62 NSCLC; KM20L2 colon; M19-MEL melanoma; SK-OV-3 ovarian; UACC-257 melanoma; HS 578T breast; UACC-62 melanoma.
Test in all cases: NCI tumour cell line growth inhibition, 48 h

Values joined by “and” are separate entries in the source; they are usually repeats but may differ in a detail not shown here. Identical values can stand only once.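 Test compounds were applied to cells in 96-well plates for 48 hours at 5 doses. At the GI50, growth is halved. The concentration for full growth arrest is given as TGI.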

Consider `CC1=C(C(=O)Nc2ccc([N+](=O)[O-])cc2)C(c2ccccc2O)C(C(=O)Nc2ccc([N+](=O)[O-])cc2)=C(C)N1`, for which the TGI in the test with 786-0 renal was found to be 64.8 µM; in the test with ACHN renal, 58 µM; in the test on DMS 114 small cell lung, 44.8 µM; with HOP-62 NSCLC it was 31.9 µM; with KM20L2 colon, 35.8 µM; in the test on M19-MEL melanoma it was 64.4 µM. The TGI with SK-OV-3 ovarian is 94.7 µM; in the test on UACC-257 melanoma it was 51.1 µM.

As for `Clc1cccc(N2CCN(CCN3CCc4c([nH]c5ccccc45)C3c3cccnc3)CC2)c1` (stereo unspecified), the TGI was over 73.5 µM in the test on 786-0 renal; over 100 µM in the test on ACHN renal; over 100 µM in the test with DMS 114 small cell lung; over 86.8 µM with HOP-62 NSCLC; over 100 µM in the test on HS 578T breast; 77.8 µM in the test on KM20L2 colon. Further, the TGI with M19-MEL melanoma, in the test on SK-OV-3 ovarian, in the test on UACC-257 melanoma and with UACC-62 melanoma was over 100 µM each time.

As to `OC(C1CO1)C(O)C1CO1` (stereo unspecified), the GI50 was 18.7 µM with 786-0 renal; 8.57 µM in the test on HOP-62 NSCLC; 39.3 µM in the test with HS 578T breast; 5.68 µM in the test on SK-OV-3 ovarian; 56.1 µM in the test on UACC-257 melanoma. The TGI in the test with 786-0 renal was 48.5 µM and 139 µM; in the test on ACHN renal, 52.2 µM and 156 µM; in the test with DMS 114 small cell lung, 150 µM; in the test on HOP-62 NSCLC, 36.5 µM and 99.7 µM; with HS 578T breast, 150 µM and 392 µM; in the test with KM20L2 colon it was 150 µM. Further, the TGI is 150 µM in the test on M19-MEL melanoma; 95.2 µM and 186 µM in the test with SK-OV-3 ovarian; 141 µM and 244 µM in the test with UACC-257 melanoma; 72.1 µM and 130 µM in the test on UACC-62 melanoma.

For `CN(C(=O)C12C3(C(=O)C(C)(C)C)C4C5(C#N)C3C1(C(=O)C(C)(C)C)C5C42C(=O)C(C)(C)C)C(C)(C)C` (stereo unspecified), the TGI in the test with 786-0 renal, in the test on ACHN renal, in the test on DMS 114 small cell lung, with HOP-62 NSCLC, in the test on KM20L2 colon and with M19-MEL melanoma was over 50 µM in each case. For the same compound, the TGI in the test with SK-OV-3 ovarian, in the test on UACC-257 melanoma and in the test with UACC-62 melanoma was over 50 µM in each case.

With `O=C(O)C(C(=O)C(=O)C(C(=O)O)c1ccc(Cl)cc1)c1ccc(Cl)cc1` (stereo unspecified), the TGI in the test on 786-0 renal turned out to be 15.7 µM; with ACHN renal, 12.8 µM; in the test on DMS 114 small cell lung it was 5.64 µM; in the test with HOP-62 NSCLC, 16.9 µM; in the test with KM20L2 colon, 11.3 µM; in the test on M19-MEL melanoma, 12.5 µM. Besides, the figures for the TGI in the test with SK-OV-3 ovarian, in the test with UACC-257 melanoma and with UACC-62 melanoma were 18.2 µM, 11.4 µM and 3.91 µM, respectively.

Turning to `O=[P+](O)c1cc2ccccc2c2ccccc12`, the TGI in the test on 786-0 renal, in the test on DMS 114 small cell lung, with HOP-62 NSCLC, with KM20L2 colon, in the test with M19-MEL melanoma and with SK-OV-3 ovarian was over 100 µM each time. In addition, the TGI in the test on UACC-62 melanoma was over 100 µM.

Regarding `COC(=O)[C@@]1(O)CC(C)C=C1C=O` (stereo partly specified), the TGI in the test with 786-0 renal is over 100 µM; with ACHN renal, over 100 µM; in the test with DMS 114 small cell lung, 89.7 µM; in the test with HOP-62 NSCLC it was over 100 µM; in the test with KM20L2 colon, over 100 µM; with M19-MEL melanoma, over 100 µM. Further, the TGI with SK-OV-3 ovarian, in the test on UACC-257 melanoma and with UACC-62 melanoma was over 100 µM in each case.

`NC(=S)N/N=C/c1ccc(O)cn1`: the GI50 in the test on 786-0 renal was 9.37 µM and 2.96 µM; in the test with ACHN renal, 4.14 µM; in the test with DMS 114 small cell lung it was 3.78 µM and 1.04 µM and 2.04 µM; with HOP-62 NSCLC, 10.6 µM and 5.65 µM; in the test on KM20L2 colon it was 31.7 µM and 19.7 µM and 10.6 µM; in the test with M19-MEL melanoma, 15.4 µM and 9.44 µM. Further, the GI50 is 128 µM and 25.8 µM in the test on SK-OV-3 ovarian; 25.6 µM and 34 µM with UACC-257 melanoma; 2.83 µM and 3.13 µM and 1.83 µM with UACC-62 melanoma. Also, the TGI was 46 µM and > 408 µM in the test on 786-0 renal; 40.8 µM and 16.1 µM with ACHN renal; 35.7 µM and 16.9 µM and 74.6 µM in the test with HOP-62 NSCLC; over 1500 µM in the test with HS 578T breast; over 1500 µM in the test on KM20L2 colon; 953 µM and 613 µM with SK-OV-3 ovarian. The TGI in the test on UACC-257 melanoma is 74.2 µM and 112 µM and 149 µM; in the test on UACC-62 melanoma, 10.7 µM and 13.1 µM and 37.3 µM.

For the compound `COc1ccc(OC)c(NCC#N)c1`, the TGI in the test with 786-0 renal, with ACHN renal, in the test with DMS 114 small cell lung, in the test with HOP-62 NSCLC, with KM20L2 colon and in the test with M19-MEL melanoma was over 100 µM each time. For the same compound, the TGI in the test on SK-OV-3 ovarian, in the test on UACC-257 melanoma and with UACC-62 melanoma was over 100 µM throughout.

With `O=C1[C@H]2ON(c3ccccc3)C(c3ccccc3F)[C@H]2C(=O)N1c1ccc(Cc2ccc(N3C(=O)[C@@H]4ON(c5ccccc5)C(c5ccccc5F)[C@@H]4C3=O)cc2)cc1` (stereo partly specified), the TGI in the test with 786-0 renal, in the test on ACHN renal, with DMS 114 small cell lung, in the test on HOP-62 NSCLC, with KM20L2 colon and in the test on M19-MEL melanoma was over 100 µM in each case. In addition, the TGI in the test on SK-OV-3 ovarian, with UACC-257 melanoma and in the test with UACC-62 melanoma was over 100 µM each time.

Take `O=C(NCCCCCCNC(=O)n1cc(F)c(=O)[nH]c1=O)NCCCOCCOCCOCCOCCOCCOCCOCCOCCOCCOCCOCCOCCOCCOCCOCCOCCOCCOCCOCCOCCOCCCNC(=O)C(O)C(O)C(OC1OC(CO)C(O)C(O)C1O)C(O)CO` (stereo unspecified): the TGI in the test on 786-0 renal, with ACHN renal, with DMS 114 small cell lung, in the test with HOP-62 NSCLC, with HS 578T breast and in the test with KM20L2 colon was over 100 µM throughout. The TGI with M19-MEL melanoma, with SK-OV-3 ovarian, in the test on UACC-257 melanoma and in the test on UACC-62 melanoma was over 100 µM each time.

For `O=c1cc(-c2ccccc2)nc(/C=C(\O)c2ccncc2)n1-c1ccccc1`, the TGI with 786-0 renal, in the test with ACHN renal, in the test with DMS 114 small cell lung, in the test with HOP-62 NSCLC, with KM20L2 colon and in the test on M19-MEL melanoma was over 100 µM in each case. In addition, the TGI in the test on SK-OV-3 ovarian, in the test with UACC-257 melanoma and in the test with UACC-62 melanoma was over 100 µM in each case.

For `Cc1ccc(C(=O)N2CCN(C(=O)c3ccc(C)cc3)c3ccccc32)cc1`, the TGI in the test with 786-0 renal is 43.2 µM; in the test with ACHN renal it was over 100 µM; with DMS 114 small cell lung, 18 µM; with HOP-62 NSCLC, over 100 µM; in the test with HS 578T breast, 29.8 µM; in the test with KM20L2 colon, over 32.6 µM. For the same compound, the TGI with M19-MEL melanoma is over 100 µM; in the test with SK-OV-3 ovarian it was 25 µM; in the test with UACC-257 melanoma it was over 100 µM; in the test with UACC-62 melanoma, over 100 µM.

These data come from PubChem BioAssay (NCI).
